In US9023878B2 (Neurophyxia B.V., priority 2010, dated 2015):

How the values were obtained:
[1] = system: Wistar rats
Experimental: Group I: Vehicle 20% Solutol (Continuous Intravenous Infusion)
Animals received a continuous infusion of vehicle only (20% Solutol in 5% dextrose) at a dose volume of 4 mL/kg/h for 24 hours.
Group II: Vehicle 5% Solutol (Continuous Intravenous Infusion)
Animals received a continuous infusion of vehicle only (5% Solutol in 5% dextrose) at a dose volume of 4 mL/kg/h for approximately 96 hours.
Group III: 960 mg/kg/24 h of 2-IBin 5% Solutol (Continuous Intravenous Infusion).

[2] = Solubility/encapsulation in cyclodextrin solutions (excess 2-IB, three days, filtered, RP-HPLC)
Experimental: An excess of 2-IB was added to the cyclodextrin solutions, mixed at room temperature for three days and then filtered to remove non-encapsulated) non-solubilised 2-IB.

[3] = Novel excipients (Cremophor EL, Solutol HS 15): 2-IB content of formulations at t=0 and after 48 hours; conditions: for Concentration t = 0 / Concentration t = 48 h: Solutol HS 15 formulation
Experimental: Finally two novel excipients were tested, Cremophor EL and Solutol HS 15.
A range of 2-IB formulations were prepared that were stored for 48 hours and measured for 2-IB content:

[4] = 960 mg/kg/24 h 2-IB in 5% Solutol, continuous iv infusion
[5] = nominal 5.0 mg/ml, pH 2.4, after filtration
[6] = nominal 5.0 mg/ml, pH 2.8, after filtration
[7] = nominal 5.0 mg/ml, pH 3.0, after filtration
[8] = nominal 5.0 mg/ml, pH 3.5, after filtration
[9] = nominal 5.0 mg/ml, pH 3.6, after filtration
[10] = nominal 5.0 mg/ml, pH 3.8, after filtration
[11] = nominal 5.0 mg/ml, pH 10.2, after filtration
[12] = nominal 10 mg/ml, pH 3.0, after filtration
[13] = nominal 10 mg/ml, pH 3.5, after filtration
[14] = nominal 20 mg/ml, pH 3.0, after filtration
[15] = nominal 20 mg/ml, pH 3.5, after filtration

N=C1N[C@H]2[C@H](CS[C@H]2CCCCC(=O)O)N1 [Formulation 2-IB, 2-iminobiotin]
body weights [1, 4]: increased for two animals
clinical chemistry at the end of treatment [1, 4]: slight to moderate increase in aspartate aminotransferase (1/2), alkaline phosphatase (1/2), and glucose (2/2)
creatinine and urine at the end of treatment [1, 4]: high values for creatinine and urine (1/2)
macroscopic findings at necropsy [1, 4]: oedema (2/3), pelvic dilation of the kidneys (2/3), enlarged liver (1/3), enlarged iliac lymph node (113), dark spots on the lungs (1/3), and fibrin-like coating in or around the femoral vein
clinical signs ([1]; 960 mg/kg/24 h 2-IB in 5% Solutol, continuous iv infusion, Days 2-3): hunched posture, piloerection and pallor
mortality ([1]; 960 mg/kg/24 h 2-IB in 5% Solutol/5% dextrose, continuous iv infusion 4 mL/kg/h, terminated after 46 hours): One animal died after 46 hours of infusion
concentration of 2-IB ([2]; 0% cyclodextrin, Citrate pH 4.0, final pH 4.0): 1.7 mg/mL
concentration of 2-IB ([2]; 0% cyclodextrin, Citrate pH 5.0, final pH 5.0): 0.6 mg/mL
concentration of 2-IB ([2]; 0% cyclodextrin, WFI, final pH 6.5): 0.4 mg/mL
concentration of 2-IB ([2]; 2.5% HP-CD, Citrate pH 4.0, final pH 4.2): 2.5 mg/mL
concentration of 2-IB ([2]; 2.5% HP-CD, Citrate pH 5.0, final pH 5.1): 0.9 mg/mL
concentration of 2-IB ([2]; 2.5% HP-CD, WFI, final pH 6.5): 0.5 mg/mL
concentration of 2-IB ([2]; 2.5% SBE-CD, Citrate pH 4.0, final pH 4.3): 3.7 mg/mL
concentration of 2-IB ([2]; 2.5% SBE-CD, Citrate pH 5.0, final pH 5.0): 1.9 mg/mL
concentration of 2-IB ([2]; 2.5% SBE-CD, WFI, final pH 6.3): 0.7 mg/mL
concentration of 2-IB ([2]; 5% HP-CD, Citrate pH 4.0, final pH 4.3): 3.0 mg/mL
concentration of 2-IB ([2]; 5% HP-CD, Citrate pH 5.0, final pH 5.1): 1.2 mg/mL
concentration of 2-IB ([2]; 5% HP-CD, WFI, final pH 6.5): 0.5 mg/mL
concentration of 2-IB ([2]; 5% SBE-CD, Citrate pH 4.0, final pH 4.4): 5.5 mg/mL
concentration of 2-IB ([2]; 5% SBE-CD, Citrate pH 5.0, final pH 5.1): 2.9 mg/mL
concentration of 2-IB ([2]; 5% SBE-CD, WFI, final pH 6.5): 1.0 mg/mL
concentration of 2-IB ([2]; 10% HP-CD, Citrate pH 4.0, final pH 4.5): 4.1 mg/mL
concentration of 2-IB ([2]; 10% HP-CD, Citrate pH 5.0, final pH 5.2): 1.6 mg/mL
concentration of 2-IB ([2]; 10% HP-CD, WFI, final pH 6.5): 0.6 mg/mL
concentration of 2-IB ([2]; 10% SBE-CD, Citrate pH 4.0, final pH 4.6): 8.0 mg/mL
concentration of 2-IB ([2]; 10% SBE-CD, Citrate pH 5.0, final pH 5.1): 4.6 mg/mL
concentration of 2-IB ([2]; 10% SBE-CD, WFI, final pH 6.5): 1.5 mg/mL
concentration of 2-IB ([2]; 20% HP-CD, Citrate pH 4.0, final pH 4.7): 5.1 mg/mL
concentration of 2-IB ([2]; 20% HP-CD, Citrate pH 5.0, final pH 5.3): 2.1 mg/mL
concentration of 2-IB ([2]; 20% HP-CD, WFI, final pH 6.6): 0.9 mg/mL
concentration of 2-IB ([2]; 20% SBE-CD, Citrate pH 4.0, final pH 4.9): 11.4 mg/mL
concentration of 2-IB ([2]; 20% SBE-CD, Citrate pH 5.0, final pH 5.3): 7.0 mg/mL
concentration of 2-IB ([2]; 20% SBE-CD, WFI, final pH 6.7): 2.4 mg/mL
concentration of 2-IB ([2]; 40% HP-CD, Citrate pH 4.0, final pH 5.0): 5.6 mg/mL
concentration of 2-IB ([2]; 40% HP-CD, Citrate pH 5.0, final pH 5.6): 2.6 mg/mL
concentration of 2-IB ([2]; 40% HP-CD, WFI, final pH 6.7): 1.2 mg/mL
Solutol HS 15 concentration giving optimal solubility ([3]; 5-10-15-20-25% Solutol HS 15 tested at approximately 5 mg/ml): 20%
pH at which the formulation could be prepared ([3]; 20% Solutol HS 15 and 5% Dextrose in water): 3.5-3.6
Concentration t = 0 [3, 5]: 5.65 mg/mL
Concentration t = 48 h [3, 5]: 4.78 mg/mL
Concentration t = 0 [3, 6]: 5.43 mg/mL
Concentration t = 48 h [3, 6]: 5.45 mg/mL
Concentration t = 0 [3, 7]: 4.64 mg/mL
Concentration t = 48 h [3, 7]: 4.87 mg/mL
Concentration t = 0 [3, 8]: 5.21 mg/mL
Concentration t = 48 h [3, 8]: 4.94 mg/mL
Concentration t = 0 [3, 9]: 4.52 mg/mL
Concentration t = 48 h [3, 9]: 3.93 mg/mL
Concentration t = 0 [3, 10]: 5.10 mg/mL
Concentration t = 48 h [3, 10]: 2.62 mg/mL
Concentration t = 0 [3, 11]: 5.71 mg/mL
Concentration t = 48 h [3, 11]: 0 mg/mL
Concentration t = 0 [3, 12]: 9.06 mg/mL
Concentration t = 48 h [3, 12]: 8.64 mg/mL
Concentration t = 0 [3, 13]: 8.30 mg/mL
Concentration t = 48 h [3, 13]: 8.04 mg/mL
Concentration t = 0 [3, 14]: 16.6 mg/mL
Concentration t = 48 h [3, 14]: 16.7 mg/mL
Concentration t = 0 [3, 15]: 14.7 mg/mL
Concentration t = 48 h [3, 15]: 13.2 mg/mL
